Laboratory results taken from ChEMBL document CHEMBL5365505, “Targeted Degradation of CDK4/6: An Innovative Approach to Overcoming Cancer Drug Resistance” (ACS Med Chem Lett, 2023).
Where “and” joins values, the source holds several entries; their conditions need not be identical. Equal values may be shown once.

Legend:
Type in all cases: ADME, organism-based
Settings in all cases: in vivo
[1] = Cmax in C57BL/6 mouse at 25 mg/kg, ip measured for 24 hrs by LC/MS/MS analysis; parameters: dose 25 mg/kg, time 24 hrs, route ip
[2] = Tmax in C57BL/6 mouse at 25 mg/kg, ip measured for 24 hrs by LC/MS/MS analysis
[3] = Half life in C57BL/6 mouse at 25 mg/kg, ip measured for 24 hrs by LC/MS/MS analysis
[4] = AUClast in C57BL/6 mouse at 25 mg/kg, ip measured for 24 hrs by LC/MS/MS analysis; parameters: dose 25 mg/kg, time 24 hrs, route ip
[5] = AUC (infinity) in C57BL/6 mouse at 25 mg/kg, ip measured for 24 hrs by LC/MS/MS analysis; parameters: time 24 hrs, dose 25 mg/kg, route ip
[6] = Cmax in C57BL/6 mouse at 10 mg/kg, po measured for 24 hrs by LC/MS/MS analysis; parameters: time 24 hrs, dose 10 mg/kg, route po
[7] = Tmax in C57BL/6 mouse at 10 mg/kg, po measured for 24 hrs by LC/MS/MS analysis
[8] = Half life in C57BL/6 mouse at 10 mg/kg, po measured for 24 hrs by LC/MS/MS analysis
[9] = AUClast in C57BL/6 mouse at 10 mg/kg, po measured for 24 hrs by LC/MS/MS analysis; parameters: dose 10 mg/kg, time 24 hrs, route po
[10] = AUC (infinity) in C57BL/6 mouse at 10 mg/kg, po measured for 24 hrs by LC/MS/MS analysis; parameters: dose 10 mg/kg, time 24 hrs, route po

Row | Cmax [1] | Tmax [2] | half-life [3] | AUC(0-t) at 24 h [4] | AUC(0-inf) [5] | Cmax [6] | Tmax [7] | half-life [8] | AUC(0-t) at 24 h [9] | AUC(0-inf) [10] | Structure (SMILES)
1 | 2550 ng/mL and 2.6 µM | 0.58 h | 7 h | 8210 ng·h/mL | 9230 ng·h/mL |  |  |  |  |  | CC(=O)c1c(C)c2cnc(Nc3ccc(N4CCN(CCCCC(=O)N[C@H](C(=O)N5C[C@H](O)C[C@H]5C(=O)N[C@@H](C)c5ccc(-c6scnc6C)cc5)C(C)(C)C)CC4)cn3)nc2n(C2CCCC2)c1=O
2 |  |  |  |  |  | 724 ng/mL | 1 h | 2.15 h | 2470 ng·h/mL | 2730 ng·h/mL | CC(=O)c1c(C)c2cnc(Nc3ccc(N4CCN(CC5CCN(c6ccc7c(c6)C(=O)N(C6CCC(=O)NC6=O)C7=O)CC5)CC4)cn3)nc2n(C2CCCC2)c1=O (stereo not given)
